For eleven compounds, IC50 results are on record in patent publication US20250163054A1, “SUBSTITUTED BICYCLIC HETEROARYL COMPOUNDS USEFUL AS INHIBITORS OF TLR9” (Bristol-Myers Squibb Company, priority 2022, published 2025).

Common to all, as to assay type: cell-based
The target in one test is T1, human TLR8 (Homo sapiens, UniProt Q9NR97).
T1 construct: host or cells: HEK-Blue cells (HEK293-derived reporter line)
T1 sequence (Q9NR97 27-1041): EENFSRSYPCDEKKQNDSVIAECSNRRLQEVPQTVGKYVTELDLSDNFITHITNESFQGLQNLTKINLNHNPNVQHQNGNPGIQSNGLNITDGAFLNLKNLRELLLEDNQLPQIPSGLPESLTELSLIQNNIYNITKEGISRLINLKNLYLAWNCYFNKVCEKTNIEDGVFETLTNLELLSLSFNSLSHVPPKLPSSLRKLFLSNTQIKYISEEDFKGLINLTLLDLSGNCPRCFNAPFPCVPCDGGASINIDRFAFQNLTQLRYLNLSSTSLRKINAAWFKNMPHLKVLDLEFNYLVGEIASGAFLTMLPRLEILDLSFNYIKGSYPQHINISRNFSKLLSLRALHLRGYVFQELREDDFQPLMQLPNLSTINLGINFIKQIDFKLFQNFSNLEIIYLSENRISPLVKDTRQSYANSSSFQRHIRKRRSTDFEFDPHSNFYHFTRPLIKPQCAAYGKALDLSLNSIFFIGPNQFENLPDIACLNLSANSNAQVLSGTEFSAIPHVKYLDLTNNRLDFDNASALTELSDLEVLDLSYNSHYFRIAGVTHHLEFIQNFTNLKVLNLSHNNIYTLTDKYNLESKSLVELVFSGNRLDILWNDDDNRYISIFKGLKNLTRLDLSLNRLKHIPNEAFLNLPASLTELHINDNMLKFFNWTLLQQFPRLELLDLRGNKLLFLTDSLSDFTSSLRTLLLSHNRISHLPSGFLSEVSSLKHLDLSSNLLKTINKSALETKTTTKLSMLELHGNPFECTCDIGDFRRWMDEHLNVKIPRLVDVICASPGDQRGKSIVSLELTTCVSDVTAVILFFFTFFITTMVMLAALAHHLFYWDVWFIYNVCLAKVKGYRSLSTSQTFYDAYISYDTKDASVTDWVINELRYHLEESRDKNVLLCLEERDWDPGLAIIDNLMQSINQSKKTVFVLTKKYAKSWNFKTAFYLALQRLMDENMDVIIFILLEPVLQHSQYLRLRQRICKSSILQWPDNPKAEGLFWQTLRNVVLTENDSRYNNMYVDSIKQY
The experiment in a line: TLR7/8/9 Inhibition Reporter Assays (TLR8). Particulars: HEK-Blue cells overexpressing human TLR8, SEAP reporter, stimulated with TLR8 ligand R848. Put shortly:
(§1)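 HEK-Blue cells overexpressing human TLR7, TLR8 or TLR9 with NF-κB/AP-1-driven SEAP reporter, pre-treated 60 min with compound ([…]). Stimulated with […] (TLR7), […] (TLR8) or ODN2006 200 nM (TLR9), then 22 h at 37° C; SEAP measured, % inhibition relative to agonist-plus-DMSO and known-inhibitor wells.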

In the next test the target is T2, human TLR9 (Homo sapiens, UniProt Q9NR96).
T2 construct: host or cells: HEK-Blue cells (HEK293-derived reporter line)
T2 sequence (Q9NR96 26-1032): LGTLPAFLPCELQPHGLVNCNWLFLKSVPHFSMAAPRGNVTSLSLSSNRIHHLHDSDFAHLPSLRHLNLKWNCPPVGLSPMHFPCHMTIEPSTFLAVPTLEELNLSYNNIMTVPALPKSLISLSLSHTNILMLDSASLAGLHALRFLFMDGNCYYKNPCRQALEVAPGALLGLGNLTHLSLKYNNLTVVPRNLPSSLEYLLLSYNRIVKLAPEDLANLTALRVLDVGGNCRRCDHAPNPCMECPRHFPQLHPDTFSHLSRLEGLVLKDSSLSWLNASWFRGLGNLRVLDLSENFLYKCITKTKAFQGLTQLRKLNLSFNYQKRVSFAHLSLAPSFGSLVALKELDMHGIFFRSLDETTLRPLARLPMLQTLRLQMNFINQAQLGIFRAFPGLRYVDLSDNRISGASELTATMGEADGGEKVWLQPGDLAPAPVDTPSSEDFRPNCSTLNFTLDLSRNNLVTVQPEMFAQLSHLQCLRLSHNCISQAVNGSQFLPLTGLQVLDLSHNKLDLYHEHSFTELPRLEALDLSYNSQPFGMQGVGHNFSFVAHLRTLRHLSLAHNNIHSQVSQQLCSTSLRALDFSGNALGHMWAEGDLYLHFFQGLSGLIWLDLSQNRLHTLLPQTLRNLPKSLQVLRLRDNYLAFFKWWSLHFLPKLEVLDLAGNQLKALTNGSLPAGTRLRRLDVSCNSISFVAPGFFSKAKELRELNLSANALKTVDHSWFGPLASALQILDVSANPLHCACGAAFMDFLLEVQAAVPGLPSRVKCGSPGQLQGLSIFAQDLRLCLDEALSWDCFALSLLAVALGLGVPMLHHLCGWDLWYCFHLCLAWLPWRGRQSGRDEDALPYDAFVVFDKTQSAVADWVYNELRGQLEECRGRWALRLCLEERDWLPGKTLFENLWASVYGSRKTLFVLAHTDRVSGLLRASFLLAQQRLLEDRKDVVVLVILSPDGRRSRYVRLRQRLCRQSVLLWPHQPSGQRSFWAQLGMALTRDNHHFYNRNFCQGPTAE
The experiment in a line: TLR7/8/9 Inhibition Reporter Assays (TLR9). Particulars: HEK-Blue cells overexpressing human TLR9, SEAP reporter, stimulated with TLR9 ligand ODN2006. Put shortly:
as §1

The next test has as its target T3, human TLR7 (Homo sapiens, UniProt Q9NYK1).
T3 construct: host or cells: HEK-Blue cells (HEK293-derived reporter line)
T3 sequence (Q9NYK1 27-1049): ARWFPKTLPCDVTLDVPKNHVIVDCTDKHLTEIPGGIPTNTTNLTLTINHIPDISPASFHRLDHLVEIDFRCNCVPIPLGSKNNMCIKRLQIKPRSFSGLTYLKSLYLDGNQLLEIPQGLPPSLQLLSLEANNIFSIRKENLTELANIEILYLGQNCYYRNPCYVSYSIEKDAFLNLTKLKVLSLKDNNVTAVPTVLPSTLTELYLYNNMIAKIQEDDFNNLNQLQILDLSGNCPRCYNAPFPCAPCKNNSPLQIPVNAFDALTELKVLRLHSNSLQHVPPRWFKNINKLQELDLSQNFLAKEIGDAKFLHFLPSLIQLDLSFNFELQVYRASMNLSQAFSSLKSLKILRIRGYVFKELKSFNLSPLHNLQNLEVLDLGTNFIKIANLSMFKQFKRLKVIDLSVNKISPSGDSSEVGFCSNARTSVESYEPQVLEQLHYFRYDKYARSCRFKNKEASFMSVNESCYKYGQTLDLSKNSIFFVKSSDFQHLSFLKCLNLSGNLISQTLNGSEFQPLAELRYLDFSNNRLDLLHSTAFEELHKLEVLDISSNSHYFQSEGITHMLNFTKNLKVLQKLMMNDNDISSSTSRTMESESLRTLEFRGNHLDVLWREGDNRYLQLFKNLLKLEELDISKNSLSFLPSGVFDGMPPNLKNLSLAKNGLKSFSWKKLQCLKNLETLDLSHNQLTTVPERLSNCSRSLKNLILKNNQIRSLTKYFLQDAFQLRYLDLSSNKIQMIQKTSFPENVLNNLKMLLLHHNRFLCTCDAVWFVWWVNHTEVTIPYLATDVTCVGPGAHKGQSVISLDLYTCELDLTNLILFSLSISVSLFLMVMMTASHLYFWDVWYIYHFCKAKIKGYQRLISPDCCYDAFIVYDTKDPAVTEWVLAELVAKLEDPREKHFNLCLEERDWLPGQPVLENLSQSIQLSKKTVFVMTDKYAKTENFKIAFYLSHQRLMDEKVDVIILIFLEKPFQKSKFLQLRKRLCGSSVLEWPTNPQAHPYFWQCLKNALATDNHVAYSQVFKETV
The experiment in a line: TLR7/8/9 Inhibition Reporter Assays (TLR7). Particulars: HEK-Blue cells overexpressing human TLR7, SEAP reporter, stimulated with TLR7 ligand gardiquimod. Put shortly: as §1
(In a reporter assay the amount or activity of a reporter protein is the signal.)

As a reminder, the IC50 is the midpoint of a concentration-inhibition curve. High values mean weaker potency in that assay, low ones greater potency in that assay. In the case of `COc1cc(-c2nc3c(C)nc(-c4ccc(N5CCN(C6CCC6)CC5)cc4)cc3n2C)cn2ncnc12` [Example 12, 6-(6-(4-(4-cyclobutylpiperazin-1-yl)phenyl)-1,4-dimethyl-1H-imidazo[4,5-c]pyridin-2-yl)-8-methoxy-[1,2,4]triazolo[1,5-a]pyridine], the IC50 against human TLR8 was over 50000 nM; at human TLR9, 630 nM; at human TLR7, 1500 nM.

For the compound `COc1cc(-c2nc3c(C)nc(-c4ccc(N5CCN(C(C)C)CC5)cc4)cc3n2C)cn2ncnc12` [Example 9, 6-(6-(4-(4-isopropylpiperazin-1-yl)phenyl)-1,4-dimethyl-1H-imidazo[4,5-c]pyridin-2-yl)-8-methoxy-[1,2,4]triazolo[1,5-a]pyridine], the IC50 against human TLR8 was 9100 nM; on human TLR9, 220 nM; on human TLR7, 470 nM.

For the compound `CC(C)CN1CC2(C1)CN(c1ccc(-c3cc4c(cn3)nc(-c3ccc(S(C)(=O)=O)cc3)n4C3CC3)cc1)C2` [Example 90, 1-cyclopropyl-6-(4-(6-isobutyl-2,6-diazaspiro[3.3]heptan-2-yl)phenyl)-2-(4-(methylsulfonyl)phenyl)-1H-imidazo[4,5-c]pyridine], the IC50 on human TLR8 was 2900 nM; at human TLR9 it was 440 nM; against human TLR7 it was 5800 nM.

For the compound `Cc1nc(-c2ccc(N3CC4(CCN(CC(C)C)CC4)C3)cc2)cc2c1nc(-c1ccc(S(C)(=O)=O)cc1)n2C` [Example 98, 6-(4-(7-isobutyl-2,7-diazaspiro[3.5]nonan-2-yl)phenyl)-1,4-dimethyl-2-(4-(methylsulfonyl)phenyl)-1H-imidazo[4,5-c]pyridine], the IC50 is over 50000 nM at human TLR8, 63 nM on human TLR9 and 2400 nM against human TLR7.

Take `Cc1cc(-c2nc3c(C)nc(-c4ccc(N5CCN(C6CCC6)CC5)cc4)cc3n2C)cc(C)n1` [Example 16, 6-(4-(4-cyclobutylpiperazin-1-yl)phenyl)-2-(2,6-dimethylpyridin-4-yl)-1,4-dimethyl-1H-imidazo[4,5-c]pyridine]: the values for the IC50 against human TLR8, against human TLR9 and at human TLR7 were over 50000 nM, 910 nM and 2100 nM, respectively.

For `CC(C)CN1CCC(N2CC=C(c3cc4c(nc(-c5ccc(S(C)(=O)=O)cc5)n4C)c(C(F)(F)F)n3)CC2)CC1` [Example 36, 6-(1-(1-isobutylpiperidin-4-yl)-1,2,3,6-tetrahydropyridin-4-yl)-1-methyl-2-(4-(methylsulfonyl)phenyl)-4-(trifluoromethyl)-1H-imidazo[4,5-c]pyridine], the results for the IC50 against human TLR8, on human TLR9 and against human TLR7 were over 50000 nM, 330 nM and 4100 nM, respectively.

As to `CC(C)CN1CC2(CCN(c3ccc(-c4cc5c(cn4)nc(-c4ccc(S(C)(=O)=O)cc4)n5C)cc3)CC2)C1` [Example 96, 6-(4-(2-isobutyl-2,7-diazaspiro[3.5]nonan-7-yl)phenyl)-1-methyl-2-(4-(methylsulfonyl)phenyl)-1H-imidazo[4,5-c]pyridine], the figures for the IC50 against human TLR8, against human TLR9 and at human TLR7 were 990 nM, 240 nM and 3000 nM, respectively.

On to `Cc1cc(-c2nc3c(C)nc(-c4ccc(N5CCN(CC6CC6)CC5)cc4)cc3n2C)cc(C)n1` [Example 15, 6-(4-(4-(cyclopropylmethyl)piperazin-1-yl)phenyl)-2-(2,6-dimethylpyridin-4-yl)-1,4-dimethyl-1H-imidazo[4,5-c]pyridine], for which the IC50 was 18000 nM against human TLR8, 460 nM at human TLR9 and 1100 nM at human TLR7.

For the compound `Cc1nc(-c2ccc(N3CC4(C3)CN(C3COC3)C4)cc2)cc2c1nc(-c1ccc(S(C)(=O)=O)cc1)n2C` [Example 107, 1,4-dimethyl-2-(4-(methylsulfonyl)phenyl)-6-(4-(6-(oxetan-3-yl)-2,6-diazaspiro[3.3]heptan-2-yl)phenyl)-1H-imidazo[4,5-c]pyridine], the IC50 on human TLR8 was over 50000 nM; on human TLR9, 980 nM; against human TLR7 it was 30000 nM.

For `COC1CCN(Cc2ccc(-c3ccc(-c4cc5c(nc(-c6ccc(S(C)(=O)=O)cc6)n5C)c(C)n4)cc3)nc2)CC1` [Example 50, 6-(4-(5-((4-methoxypiperidin-1-yl)methyl)pyridin-2-yl)phenyl)-1,4-dimethyl-2-(4-(methylsulfonyl)phenyl)-1H-imidazo[4,5-c]pyridine], the IC50 on human TLR8 was over 50000 nM; on human TLR9 it was 530 nM; against human TLR7 it was 1100 nM.

As for `Cc1cc(-c2nc3c(C)nc(-c4ccc(N5CCN(C(C)C)CC5)cc4)cc3n2C)cc(C)n1` [Example 13, 2-(2,6-dimethylpyridin-4-yl)-6-(4-(4-isopropylpiperazin-1-yl)phenyl)-1,4-dimethyl-1H-imidazo[4,5-c]pyridine], the IC50 against human TLR8 is over 50000 nM; at human TLR9, 410 nM; at human TLR7 it was 1900 nM.
